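Abbreviation: GI50, concentration required for 50% inhibition of growth. TGI: total growth inhibition.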
Tests used:
Assay in all cases: NCI anticancer screen, dose series, 384-well format
[1] = system: SNB-75 CNS
[2] = system: TK-10 renal
[3] = system: MALME-3M melanoma
[4] = system: MDA-MB-435 melanoma
[5] = system: SF-268 CNS
[6] = system: SK-OV-3 ovarian
[7] = system: OVCAR-8 ovarian
[8] = system: 786-0 renal
[9] = system: SK-MEL-5 melanoma
[10] = system: NCI-H226 lung
[11] = system: NCI-H23 lung
[12] = system: LOX IMVI melanoma
[13] = system: UACC-62 melanoma
[14] = system: SW-620 colon
[15] = system: OVCAR-4 ovarian
[16] = system: NCI-H522 lung
[17] = system: HOP-62 NSCLC
[18] = system: MCF7 breast
[19] = system: SK-MEL-28 melanoma
[20] = system: HCT-15 colon
[21] = system: OVCAR-3 ovarian
[22] = system: SNB-19 CNS
[23] = system: RPMI-8226 leukemia
[24] = system: HCC-2998 colon
[25] = system: HL-60(TB) leukemia
[26] = system: EKVX NSCLC
[27] = system: M14 melanoma
[28] = system: IGROV1 ovarian

SMILES: CC[C@@H](C)Nc1cc(C(=O)NC2CC3CCC(C2)N3c2ccc(C(=O)C3CC3)cn2)c(C)cc1C(N)=O (stereo not given in full)
- TGI [1]: 464 nM
- GI50 [2]: 42 nM
- TGI [2]: 32800 nM
- GI50 [3]: 19.9 nM
- TGI [3]: 78.5 nM
- GI50 [4]: 62.6 nM
- TGI [4]: 23300 nM
- GI50 [5]: 11 nM
- TGI [5]: 36.3 nM
- GI50 [6]: 24.9 nM
- TGI [6]: 15000 nM
- GI50 [7]: 20.6 nM
- TGI [7]: 44.6 nM
- GI50 [8]: 33.2 nM
- TGI [8]: 11700 nM
- GI50 [9]: 19.7 nM
- TGI [9]: 10600 nM
- GI50 [10]: 30.3 nM
- TGI [10]: 171 nM
- GI50 [11]: 17.6 nM
- TGI [11]: 53.6 nM
- GI50 [12]: 16.6 nM
- TGI [12]: 31.7 nM
- GI50 [13]: 26.4 nM
- TGI [13]: 81.1 nM
- GI50 [14]: 26.2 nM
- TGI [14]: 78.8 nM
- GI50 [15]: 6750 nM
- TGI [15]: 23500 nM
- GI50 [16]: 19.4 nM
- TGI [16]: 46.3 nM
- GI50 [17]: 29.5 nM
- TGI [17]: 13700 nM
- GI50 [18]: < 10 nM
- TGI [18]: 237 nM
- GI50 [19]: 43.7 nM
- TGI [19]: 21600 nM
- GI50 [20]: 36.1 nM
- TGI [20]: 15000 nM
- GI50 [21]: 24.5 nM
- TGI [21]: 84.1 nM
- GI50 [22]: 41.6 nM
- TGI [22]: 17300 nM
- GI50 [23]: 25.1 nM
- TGI [23]: 85.6 nM
- GI50 [24]: < 10 nM
- TGI [24]: 39.6 nM
- GI50 [25]: 12.6 nM
- TGI [25]: 26.3 nM
- GI50 [26]: 36.7 nM
- TGI [26]: 17700 nM
- GI50 [27]: 31 nM
- TGI [27]: 12800 nM
- GI50 [28]: 13 nM
- TGI [28]: 85.9 nM
